According to ChEMBL document CHEMBL1201862, “PubChem BioAssay data set” (2004):
Values joined by “and” are separate entries in the source; they are usually repeats but may differ in a detail not shown here. Equal entries are not always repeated.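 Assay format: 96-well plates, 48-hour exposure. Abbreviation: GI50, concentration required for 50% inhibition of growth.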 Active and inactive are the calls of the source. No stated cut-off is given here; in the data, active = GI50 up to about 1.1 µM and inactive = higher.

Columns and labels:
Assay in all cases: NCI-60 cell line screen, 48 h
CCRF-CEM = test system: CCRF-CEM
EKVX = test system: EKVX
HCC 2998 = test system: HCC 2998
HL-60 = test system: HL-60
IGROV-1 = test system: IGROV-1
M14 = test system: M14
MDA-MB-231 = test system: MDA-MB-231
MDA-MB-435 = test system: MDA-MB-435
MDA-N = test system: MDA-N
OVCAR-4 = test system: OVCAR-4
OVCAR-5 = test system: OVCAR-5
RPMI-8226 = test system: RPMI-8226
SF-295 = test system: SF-295
SNB-19 = test system: SNB-19
SW-620 = test system: SW-620
T47D = test system: T47D
TK-10 = test system: TK-10
U-251 = test system: U-251
UACC-257 = test system: UACC-257
UACC-62 = test system: UACC-62

Compound | GI50 (CCRF-CEM) | GI50 (EKVX) | GI50 (HCC 2998) | GI50 (HL-60) | GI50 (IGROV-1) | GI50 (M14) | GI50 (MDA-MB-231) | GI50 (MDA-MB-435) | GI50 (MDA-N) | GI50 (OVCAR-4) | GI50 (OVCAR-5) | GI50 (RPMI-8226) | GI50 (SF-295) | GI50 (SNB-19) | GI50 (SW-620) | GI50 (T47D) | GI50 (TK-10) | GI50 (U-251) | GI50 (UACC-257) | GI50 (UACC-62)
CC(=O)OC1COC(n2c(N)c(C#N)c(-c3ccccc3)c(C#N)c2=S)C(OC(C)=O)C1OC(C)=O (stereo not given) | 26.1 µM (inactive) and 35.2 µM (inactive) | 31.9 µM (inactive) and 29.9 µM (inactive) | 25.6 µM (inactive) and 27.4 µM (inactive) | 23.2 µM (inactive) | > 100 µM (inactive) and 68.5 µM (inactive) | 70.8 µM (inactive) and 64.1 µM (inactive) | 50.9 µM (inactive) and 56.6 µM (inactive) | 27.8 µM (inactive) and 24.3 µM (inactive) | 26.6 µM (inactive) and 27.8 µM (inactive) | 41 µM (inactive) and 38.7 µM (inactive) | 46.5 µM (inactive) and 89.1 µM (inactive) | 24.5 µM (inactive) and 28.6 µM (inactive) | > 100 µM (inactive) | 75.9 µM (inactive) | 56.2 µM (inactive) and 64.3 µM (inactive) | 33 µM (inactive) and 28.8 µM (inactive) | 30.2 µM (inactive) | 48.8 µM (inactive) and 53.1 µM (inactive) | 57.7 µM (inactive) and 80.9 µM (inactive) | 33 µM (inactive) and 35.1 µM (inactive)
CCCCCc1cc2c(cc1O)CC[C@@H]1[C@@H]2CC[C@]2(C)[C@@H](O)CC[C@@H]12 | 35.3 µM (inactive) | 17.9 µM (inactive) | 24.3 µM (inactive) | 21.3 µM (inactive) | 18.5 µM (inactive) | 14.9 µM (inactive) | 18.4 µM (inactive) | 15.7 µM (inactive) | 17.9 µM (inactive) | 21.6 µM (inactive) | 18.8 µM (inactive) | 19.1 µM (inactive) | 13.4 µM (inactive) | 18.8 µM (inactive) | 26.4 µM (inactive) | 24.5 µM (inactive) | 16.3 µM (inactive) | 17.6 µM (inactive) | 21 µM (inactive) | 19.2 µM (inactive)
O=c1cc(-c2ccccc2)oc2c1ccc1nc3ccccc3c(O)c12 | 54.6 µM (inactive) | > 100 µM (inactive) | 62.8 µM (inactive) | 59.7 µM (inactive) | > 100 µM (inactive) | > 100 µM (inactive) | > 100 µM (inactive) | > 100 µM (inactive) | > 100 µM (inactive) | 34.8 µM (inactive) | > 100 µM (inactive) | 51.1 µM (inactive) | 49.4 µM (inactive) | > 100 µM (inactive) | > 100 µM (inactive) | 40.8 µM (inactive) | 60.1 µM (inactive) | 57.3 µM (inactive) | > 100 µM (inactive) | 67.1 µM (inactive)
N=c1c2c(=S)n(-c3ccccc3)c(=S)n(-c3ccccc3)c2nc(SCCN2CCCC2)n1-c1ccccc1 | 0.347 µM (active) | 2.49 µM (inactive) | 1.31 µM (inactive) | 0.183 µM (active) | 1.77 µM (inactive) | 1.6 µM (inactive) | 1.78 µM (inactive) | 1.87 µM (inactive) | 2.05 µM (inactive) | 3 µM (inactive) | 17.5 µM (inactive) | 0.341 µM (active) | 15.2 µM (inactive) | 15.2 µM (inactive) | 1.76 µM (inactive) | 2.8 µM (inactive) | 1.59 µM (inactive) | 2.52 µM (inactive) | 1.61 µM (inactive) | 1.63 µM (inactive)
NN | 72.3 µM (inactive) | 883 µM (inactive) | 1040 µM (inactive) | 205 µM (inactive) | 357 µM (inactive) | 468 µM (inactive) | 423 µM (inactive) | 210 µM (inactive) | 150 µM (inactive) | 625 µM (inactive) | 514 µM (inactive) | 303 µM (inactive) | 574 µM (inactive) | 887 µM (inactive) | 235 µM (inactive) | 618 µM (inactive) | 893 µM (inactive) | 410 µM (inactive) | 851 µM (inactive) | 358 µM (inactive)
CN(NC(=O)c1cccs1)C1=NCCCCN1 | > 100 µM (inactive) | > 100 µM (inactive) | > 100 µM (inactive) | > 100 µM (inactive) | > 100 µM (inactive) | > 100 µM (inactive) | > 100 µM (inactive) | > 100 µM (inactive) | > 100 µM (inactive) | > 100 µM (inactive) | > 100 µM (inactive) | > 100 µM (inactive) | > 100 µM (inactive) | > 100 µM (inactive) | > 100 µM (inactive) | > 100 µM (inactive) | > 100 µM (inactive) | > 100 µM (inactive) | > 100 µM (inactive) | > 100 µM (inactive)
CN(C)c1n/c(=N/Cc2ccccc2)ss1 | 0.646 µM (active) | > 10 µM (inactive) | > 9.64 µM (inactive) | > 5.2 µM (inactive) | > 10 µM (inactive) | > 10 µM (inactive) | > 10 µM (inactive) | > 10 µM (inactive) | > 10 µM (inactive) | > 10 µM (inactive) | > 10 µM (inactive) | 2.9 µM (inactive) | > 10 µM (inactive) | > 10 µM (inactive) | > 10 µM (inactive) | > 10 µM (inactive) | > 10 µM (inactive) | > 10 µM (inactive) | > 10 µM (inactive) | > 10 µM (inactive)
C=CCNC(=S)N/N=C1\C(=O)N(CN2CCOCC2)c2ccc([N+](=O)[O-])cc21 | 2.7 µM (inactive) | 15.4 µM (inactive) | 12.9 µM (inactive) | 24.6 µM (inactive) | 6.21 µM (inactive) | 17.2 µM (inactive) | 39.8 µM (inactive) | 55.1 µM (inactive) | 30.8 µM (inactive) | 22.7 µM (inactive) | 56.2 µM (inactive) | 33 µM (inactive) | 7.98 µM (inactive) | 21.6 µM (inactive) | 61.5 µM (inactive) | 17 µM (inactive) | 5.36 µM (inactive) | 18.1 µM (inactive) | 16.6 µM (inactive) | > 100 µM (inactive)
CCCC1NC(C#N)(C#N)C(CCC)NC1(C#N)C#N (stereo not given) | < 0.01 µM (active) | 42.8 µM (inactive) | 7.96 µM (inactive) | < 0.0107 µM (active) | 1.42 µM (inactive) | 0.126 µM (active) | 27.8 µM (inactive) | 0.106 µM (active) | 0.285 µM (active) | 1.18 µM (inactive) | 24.7 µM (inactive) | < 0.01 µM (active) | 22.7 µM (inactive) | 40.9 µM (inactive) | < 0.012 µM (active) | 0.946 µM (active) | 1.01 µM (active) | 6.46 µM (inactive) | > 100 µM (inactive) | 17.4 µM (inactive)
